Data from patent publication US8765786B2, “1-substituted indazole derivative” (Dainippon Sumitomo Pharma Co., Ltd., priority 2012, dated 2014).

Biological target: T1, human α7 nAChR (Homo sapiens, UniProt P36544)
T1 construct: expressed in transfected cells; host or cells: GH4C1 cells derived from rat pituitary (ATCC CCL-82.2)
Assay: Evaluation of PAM activity with human α7 nACh receptor stably expressing cells (aequorin luminescence, FDSS7000)
Type: cell-based
Settings: for α7PAM (%) @ 10 μmol/L / activity at 10 µM: test compound 10 μmol/L, ACh added at EC20, ratio of RLU (Max-Min) of test wells to control wells; for activity at 10 µM: read-out: α7PAM (%) @ 10 μmol/L; for PAM activity for α7 nAChR: result in words, ratio of RLU (Max-Min) to control wells, ACh EC20
Method in brief: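 PAM activity defined as RLU (Max-Min) of compound wells over control wells, from 465 nm aequorin luminescence tracked 138 s after ACh challenge. Host: GH4C1 (rat pituitary) stably co-expressing human α7 nAChR and aequorin, pre-loaded 4 h with 4 μmol/L luminescent substrate.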

T1 sequence (P36544 23-502): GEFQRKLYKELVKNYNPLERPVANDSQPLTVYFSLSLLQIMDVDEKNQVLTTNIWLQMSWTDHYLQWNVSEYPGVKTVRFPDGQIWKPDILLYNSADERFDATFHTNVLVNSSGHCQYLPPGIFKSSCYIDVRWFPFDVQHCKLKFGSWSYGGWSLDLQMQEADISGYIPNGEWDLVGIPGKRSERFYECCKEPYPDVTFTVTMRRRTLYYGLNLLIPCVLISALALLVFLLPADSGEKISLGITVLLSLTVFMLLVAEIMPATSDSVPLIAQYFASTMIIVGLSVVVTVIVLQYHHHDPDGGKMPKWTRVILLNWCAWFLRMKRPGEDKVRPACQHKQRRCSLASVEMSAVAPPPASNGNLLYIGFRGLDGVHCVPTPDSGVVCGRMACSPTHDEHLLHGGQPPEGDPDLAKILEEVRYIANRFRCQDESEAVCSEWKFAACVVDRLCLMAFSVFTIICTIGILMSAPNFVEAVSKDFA

SMILES | α7PAM (%) @ 10 μmol/L | other results
COC1CCC(NC(=O)N2CCC(n3ncc4cc(Br)ccc43)CC2)CC1 (stereo not shown) [Example 71] | 763% | 
O=C(NC1CCOCC1)N1CCC(n2ncc3c(OC(F)(F)F)cccc32)CC1 [Example 304] | 380% | 
CCc1ccc2c(cnn2C2CCN(C(=O)C3CCC(F)(F)CC3)CC2)c1 [Example 113] | 654% | 
Cc1ccc2c(cnn2C2CCN(C(=O)NC3CCC(F)(F)CC3)CC2)c1F [Example 222] | 638% | 
[2H]C([2H])([2H])O[C@H]1CC[C@H](NC(=O)N2CCC(n3ncc4cc(OC5CC5)ccc43)CC2)CC1 [Example 322] | 639% | 
CCc1ccc2c(cnn2C2CCN(C(=O)NC3CCOC(C)(C)C3)CC2)c1 (stereo not shown) [Example 21] | 523% | 
CO[C@H]1CC[C@@H](NC(=O)N2CCC(n3ncc4cc(C5CC5)ccc43)CC2)CC1 [Example 189] | 257% | 
COC1CCC(NC(=O)N2CCC(n3ncc4c(Br)cccc43)CC2)CC1 (stereo not shown) [Example 98] | 89% | 
O=C(NC1CCC(F)(F)CC1)N1CCC(n2ncc3cc(-c4ccc(F)cc4)ccc32)CC1 [Example 70, N-(4,4-difluorocyclohexyl)-4-(5-(4-fluorophenyl)-1H-indazol-1-yl)piperidine-1-carboxamide] |  | activity at 10 µM: 719%
[2H]C([2H])([2H])O[C@H]1CC[C@H](NC(=O)N2CCC(n3ncc4cc(C5CC5)ccc43)CC2)CC1 [Example 296, 4-(5-cyclopropyl-1H-indazol-1-yl)-N-{trans-4-[(^2H3)methoxy]cyclohexyl}piperidine-1-carboxamide] | 1268% | 
[2H]C([2H])([2H])O[C@H]1CC[C@H](NC(=O)N2CCC(n3ncc4cc(C(F)(F)F)ccc43)CC2)CC1 [Example 178, N-{trans-4-[(^2H3)methoxy]cyclohexyl}-4-[5-(trifluoromethyl)-1H-indazol-1-yl]piperidine-1-carboxamide] | 524% | 
COC1CCC(NC(=O)N2CCC(n3ncc4cc(F)ccc43)CC2)CC1 (stereo not shown) [Example 29] | 206% | 
[2H]C([2H])([2H])Oc1c(C2CC2)ccc2c1cnn2C1CCN(C(=O)NC2CCOCC2)CC1 [Example 323] | 886% | 
CCc1ccc2c(cnn2[C@H]2CC[C@@H](C(=O)NC3CCCC3)CC2)c1 [Example 128] | 429% | 
COCc1nn(C2CCN(C(=O)NC3CCC(OC)CC3)CC2)c2ccc(C)cc12 (stereo not shown) [Example 69] | 242% | 
COc1c(C2CC2)ccc2c1cnn2C1CCN(C(=O)NC2CCOCC2)CC1 [Example 303] | 1058% | 
O=C(NC1CC(F)(F)C1)N1CCC(n2ncc3cc(C4CC4)ccc32)CC1 [Example 217] | 517% | 
Cc1ccc2c(cnn2C2CCN(C(=O)N[C@@H]3CCCCC3(F)F)CC2)c1 [Example 78, (R)—N-(2,2-difluorocyclohexyl)-4-(5-methyl-1H-indazol-1-yl)piperidine-1-carboxamide] |  | activity at 10 µM: 987%
COCCCc1ccc2c(cnn2C2CCN(C(=O)NC3CCCC3)CC2)c1 [Example 31] | 1191% | 
Cc1ccc2c(c1)c(C1CCOCC1)nn2C1CCN(C(=O)NC2CCC(F)(F)CC2)CC1 [Example 52, N-(4,4-difluorocyclohexyl)-4-(5-methyl-3-(tetrahydro-2H-pyran-4-yl)-1H-indazol-1-yl)piperidine-1-carboxamide] |  | activity at 10 µM: 366%
CCc1nn(C2CCN(C(=O)N[C@H]3CC[C@H](OC)CC3)CC2)c2ccc(OC)cc12 [Example 240] | 833% | 

SMILES | α7PAM (%) @ 10 μmol/L | other results
Cc1ccc2c(cnn2C2CCN(C(=O)NC3CC(F)(F)C3)CC2)c1 [Example 218] | 648% | 
CCc1ccc2c(cnn2[C@H]2CC[C@@H](NC(=O)C3CCC(F)(F)CC3)CC2)c1 [Example 4, N-(cis-4-(5-ethyl-1H-indazol-1-yl)cyclohexyl)-4,4-difluorocyclohexanecarboxamide] |  | PAM activity for α7 nAChR: stronger PAM activity than others
Cc1ccc2c(cnn2C2CCN(C(=O)N[C@H]3CC[C@H](OC(F)F)CC3)CC2)c1 [Example 154] | 811% | 
CC(=O)N1CCC(NC(=O)N2CCC(n3ncc4cc(C5CC5)ccc43)CC2)CC1 [Example 203] | 271% | 
COCC(C)c1ccc2c(cnn2C2CCN(C(=O)NC3CCC(F)(F)CC3)CC2)c1 (stereo not shown) [Example 252] | 364% | 
CCc1nn(C2CCN(C(=O)NC3CCOCC3)CC2)c2ccc(C)cc12 [Example 43] | 528% | 
COCCc1ccc2c(cnn2C2CCN(C(=O)NC3CCC(F)(F)CC3)CC2)c1 [Example 239] | 485% | 
CCc1ccc2c(cnn2[C@H]2CC[C@@H](C(=O)NC3CCOCC3)CC2)c1 [Example 129] | 325% | 
[2H]C([2H])([2H])c1ccc2c(cnn2C2CCN(C(=O)N[C@H]3CC[C@H](OC)CC3)CC2)c1 [Example 144, N-(trans-4-methoxycyclohexyl)-4-[5-(^2H3)methyl-1H-indazol-1-yl]piperidine-1-carboxamide] |  | activity at 10 µM: 637%
COc1ccc2c(c1)c(C)nn2C1CCN(C(=O)N[C@H]2CC[C@H](OC)CC2)CC1 [Example 242] | 901% | 
COC1CCC(NC(=O)N2CCC(n3nc(C4CCOCC4)c4cc(C)ccc43)CC2)CC1 (stereo not shown) [Example 55] | 603% | 
CCc1ccc2c(cnn2C2CCCN(C(=O)NC3CCC(OC)CC3)CC2)c1 (stereo not shown) [Example 84] | 179% | 
O=C(NC1CCC(F)(F)CC1)N1CCC(n2ncc3cc(C(F)(F)F)ccc32)CC1 [Example 164] | 979% | 
O=C(C1CCC(F)(F)CC1)N1CCC(n2ncc3cc(F)ccc32)CC1 [Example 134] | 237% | 
COCc1c(C)ccc2c1cnn2C1CCN(C(=O)NC2CCC(F)(F)CC2)CC1 [Example 213] | 800% | 
CCc1ccc2c(cnn2C2CCCN(C(=O)NC3CCC(F)(F)CC3)CC2)c1 (stereo not shown) [Example 73] | 453% | 
[2H]C([2H])([2H])c1ccc2c(cnn2C2CCN(C(=O)NC3CCCC3)CC2)c1 [Example 315] | 825% | 
[2H]C([2H])([2H])O[C@H]1CC[C@H](NC(=O)N2CCC(n3ncc4cc(C)ccc43)CC2)CC1 [Example 295, 4-(5-methyl-1H-indazol-1-yl)-N-{trans-4-[(^2H3)methoxy]cyclohexyl}piperidine-1-carboxamide] | 1143% | 
CCOc1ccc2c(cnn2C2CCN(C(=O)NC3CCCC3)CC2)c1 [Example 17] | 2469% | PAM activity for α7 nAChR: stronger PAM activity than others
Cc1ccc2c(cnn2C2CCN(C(=O)NC3CCOC(C)(C)C3)CC2)c1 (stereo not shown) [Example 12] | 231% | 
CCc1ccc2c(c1)c(OC(C)C)nn2C1CCN(C(=O)NC2CCC(F)(F)CC2)CC1 [Example 62] | 653% | 

SMILES | α7PAM (%) @ 10 μmol/L | other results
COCCCc1ccc2c(cnn2C2CCN(C(=O)NC3CCC(F)(F)CC3)CC2)c1 [Example 26] | 521% | 
Cc1c(Br)ccc2c1cnn2C1CCN(C(=O)NC2CCC(F)(F)CC2)CC1 [Example 286] | 825% | 
Cc1ccc2c(cnn2C2CCN(C(=O)C3CCC(F)(F)CC3)CC2)c1 [Example 138] | 642% | 
COc1c(C)ccc2c1cnn2C1CCN(C(=O)NC2CCOCC2)CC1 [Example 268] | 361% | 
CCOc1cccc2c1cnn2C1CCN(C(=O)NC2CCCCC2)CC1 [Example 191] | 493% | 
CCc1ccc2c(cnn2C2CCN(C(=O)C3CCC(OC)CC3)CC2)c1 (stereo not shown) [Example 117] | 209% | 
CCc1ccc2c(cnn2[C@H]2CC[C@@H](C(=O)NC3CCC(OC)CC3)CC2)c1 (stereo partly shown) [Example 130] | 252% | 
O=C(NCc1ccc(C(F)(F)F)cc1)N1CCC(n2ncc3cc(C4CC4)ccc32)CC1 [Example 195] | 232% | 
CC(C)Oc1ccc2c(cnn2C2CCN(C(=O)C3CCC(F)(F)CC3)CC2)c1 [Example 116] | 279% | 
CC(C)Oc1ccc2c(cnn2C2CCN(C(=O)c3ccc(F)cn3)CC2)c1 [Example 115] | 182% | 
[2H]C([2H])([2H])c1ccc2c(cnn2C2CCN(C(=O)NC3CCC(OCC)CC3)CC2)c1 (stereo not shown) [Example 314] | 949% | 
CC(C)Oc1ccc2c(cnn2C2CCN(C(=O)NC3CCC(F)(F)CC3)CC2)c1 [Example 46, N-(4,4-difluorocyclohexyl)-4-(5-isopropoxy-1H-indazol-1-yl)piperidine-1-carboxamide] |  | activity at 10 µM: 544%
CC(C)(C)NC(=O)N1CCC(n2ncc3cc(C4CC4)ccc32)CC1 [Example 172] | 541% | 
COc1ccc2c(cnn2C2CCN(C(=O)NC3CCCCC3)CC2)c1 [Example 40] | 3205% | PAM activity for α7 nAChR: stronger PAM activity than others
COc1cccc2c1cnn2C1CCN(C(=O)NC2CCCCC2)CC1 [Example 181] | 538% | 
O=C(NC1CCC(F)(F)CC1)N1CCC(n2ncc3c(OC4CC4)cccc32)CC1 [Example 250] | 1215% | 
O=C(NC1CCC(F)(F)CC1)N1CCC(n2ncc3cc(Cl)ccc32)CC1 [Example 34, 4-(5-chloro-1H-indazol-1-yl)-N-(4,4-difluorocyclohexyl)piperidine-1-carboxamide] |  | activity at 10 µM: 445%
CCc1ccc2c(cnn2[C@H]2CC[C@@H](NC(=O)C3CCOCC3)CC2)c1 [Example 120] | 654% | 
CCCc1ccc2c(cnn2C2CCN(C(=O)C3CCOCC3)CC2)c1 [Example 108] | 207% | 
O=C(NC1CCCC1)N1CCC(n2ncc3cc(C4CC4)ccc32)CC1 [Example 171] | 1382% | 
